Results on one compound are retold here after patent US9816227B2, “Textile products with herbal composition to render the fabrics insects repellent” (priority 2013, dated 2017).

In data set [1] the test system is insects (larvae, pupae, adults). The experiment in a line: Exposure of insect larvae: inhibition of development to pupae and adults. In kind it is in vivo. The text has this: The possible effect of azadirachtin and other bioflavonoids including azadiradione, fraxinellone, nimbin, salannin, salannol, vepinin and vilasinin, the active components of the Neem seed oil extract, are inhibiting molting in larvae to pupae and adults of the most of the insects. Apart from delayed lethal action, effects on the pupation, adult emergence, and size of pupae or adults have been also observed. […] The compounds are characterized by their inhibition or prevention of formation of adult morphology. The effects on pupae (based on proportion of undeveloped individuals) and adults (based on incomplete development, attachment to puparia, or inability to fly) are dose-dependent.
No adults of insects are obtained at doses of 1.10, 10 and 100 μg/ml. These concentrations cause about 100% mortality of larvae or developed pupae. […] The treatments with 0.00001 and 0.001 μg/ml would result in an insignificant increase (0.8-1.6%) in the female wing length/width.

The conditions of data set [2]: exposed to light and water; cited from earlier work.
Data set [3] concerns desert locust (Schistocerca gregaria). The settings on record: in vivo; cited from earlier work.

With `C/C=C(\C)C(=O)O[C@H]1C[C@@H](OC(C)=O)[C@@]2(C(=O)OC)CO[C@H]3[C@@H](O)[C@@](C)([C@]45O[C@@]4(C)[C@H]4C[C@@H]5O[C@@H]5OC=C[C@@]54O)[C@H]4[C@]1(CO[C@]4(O)C(=O)OC)[C@@H]32` [azadirachtin, dimethyl (2aR,3S,4S,R,S,7aS,8S,10R,10aS,10bR)-10-(acetyloxy)-3,5-dihydroxy-4-[(1S,2S,6S,8S,9R,11S)-2-hydroxy-11-methyl-5,7,10-trioxatetracyclo[6.3.1.02,6.09,11]dodec-3-en-9-yl]-4-methyl-8-{[(2E)-2-methylbut-2-enoyl]oxy}octahydro-1H-furo[3′,4′:4,4a]naphtho[1,8-bc]furan-5,10a(8H)-dicarboxylate], the “increase in the female wing length/width” value in data set [1] (0.00001 and 0.001 μg/ml, insignificant) is reported as 0.8-1.6%. Besides, the “effect on wing dimensions of females” value in data set [1] (0.001, 0.01 and 0.1 μg/ml) was “do not significantly affect”. Besides, the “pupal weights and dimensions, adult weights, wing dimensions, or interocular distances” value in data set [1] (treatment of larvae with 0.00001 to 0.1 μg/ml) is reported as “significant reductions”. The degradation time in data set [2] was no more than 100 h. Further, the feeding inhibitor activity result in data set [3] is “active”.
